US9365522B2, “Pyrazole amide derivative” (AMGEN INC., priority 2015, dated 2016)

Target: T1, human RORγ-LBD (Homo sapiens, UniProt P51449)
T1 construct: made in house; host or cells: E. coli (BL-21)
T1 sequence (P51449 262-518): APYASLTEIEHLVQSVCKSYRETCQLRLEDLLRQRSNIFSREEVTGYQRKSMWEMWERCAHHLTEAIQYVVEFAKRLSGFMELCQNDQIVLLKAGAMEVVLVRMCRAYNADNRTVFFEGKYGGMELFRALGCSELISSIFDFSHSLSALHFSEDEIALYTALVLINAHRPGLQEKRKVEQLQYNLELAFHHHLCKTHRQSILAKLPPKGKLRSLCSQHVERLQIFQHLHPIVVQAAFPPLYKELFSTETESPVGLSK
Test: ROR gamma coactivator peptide recruitment Alphascreen assay (RORγ-LBD binding to GRIP1 coactivator peptide)
Type: biochemical
Details: 5 nM human RORγ-LBD, 30 nM 7-β-hydroxycholesterol, 50 nM biotinylated GRIP1 coactivator peptide, overnight incubation at room temperature; read-out: result (pIC50, RORγ coactivator peptide recruitment Alphascreen assay) (converted)
How it was run: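 His/Flag-tagged human RORγ-LBD (aa 262-518, E. coli-expressed, 5 nM) with agonist 7-β-hydroxycholesterol (30 nM) and biotinylated GRIP1 LXXLL peptide (50 nM) in HEPES pH 7.4 buffer, 2.5% DMSO. Compound 1-in-2 dilutions; Alphascreen bead signal read after overnight incubation at room temperature; pIC50 calculated.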

C[C@@H]1C[C@H](n2ncc(C(=O)N(CC(=O)c3c(Cl)cncc3Cl)CC(C)(C)C)c2C(F)(F)F)CC[C@]1(C)C(=O)O [Example 862, (1S,3S,4R)-4-(4-((2-(3,5-dichloro-4-pyridinyl)-2-oxoethyl)(2,2-dimethylpropyl)carbamoyl)-5-(trifluoromethyl)-1H-pyrazol-1-yl)-1,2-dimethylcyclohexanecarboxylic acid]
IC50: 38 nM

CC1(C)CC(N(CC(=O)c2c(Cl)cccc2Cl)C(=O)c2cnn([C@H]3CC[C@@H](C(=O)O)CC3)c2C(F)(F)F)C1 [Example 600, cis-4-(4-((2-(2,6-dichlorophenyl)-2-oxoethyl)(3,3-dimethylcyclobutyl)carbamoyl)-5-(trifluoromethyl)-1H-pyrazol-1-yl)cyclohexanecarboxylic acid]
IC50: 794 nM

Cc1ncc(Cl)c(C(=O)CN(CC(C)(C)C)C(=O)c2cnn([C@H]3CC[C@](C)(C(=O)O)CC3)c2C(F)(F)F)c1Cl [Example 715, trans-4-(4-((2-(3,5-dichloro-2-methyl-4-pyridinyl)-2-oxoethyl)(2,2-dimethylpropyl)carbamoyl)-5-(trifluoromethyl)-1H-pyrazol-1-yl)-1-methylcyclohexanecarboxylic acid]
IC50: 10.5 nM

COc1cc(Cl)c(C(=O)CN(CC2(F)CCCC2)C(=O)c2cnn([C@H]3CC[C@@H](C(=O)O)CC3)c2C(F)(F)F)c(Cl)c1 [Example 590, cis-4-(4-((2-(2,6-dichloro-4-methoxyphenyl)-2-oxoethyl)((1-fluorocyclopentyl)methyl)carbamoyl)-5-(trifluoromethyl)-1H-pyrazol-1-yl)cyclohexanecarboxylic acid]
IC50: 174 nM

Cc1cc(Cl)c(C(=O)CN(CC2CCC(C)(C)CC2)C(=O)c2cnn([C@H]3CC[C@](C)(C(=O)O)CC3)c2C(F)(F)F)c(Cl)n1 [Example 835, trans-4-(4-((2-(2,4-dichloro-6-methyl-3-pyridinyl)-2-oxoethyl)((4,4-dimethylcyclohexyl)methyl)carbamoyl)-5-(trifluoromethyl)-1H-pyrazol-1-yl)-1-methylcyclohexanecarboxylic acid]
IC50: 251 nM

CC1(CN(CC(=O)c2c(Cl)cncc2Cl)C(=O)c2cnn([C@H]3CC[C@H](CC(=O)O)CC3)c2C(F)(F)F)CCC1 [Example 775, (trans-4-(4-((2-(3,5-dichloro-4-pyridinyl)-2-oxoethyl)((1-methylcyclobutyl)methyl)carbamoyl)-5-(trifluoromethyl)-1H-pyrazol-1-yl)cyclohexyl)acetic acid]
IC50: 3.02 nM

C[C@H]1C[C@@H](n2ncc(C(=O)N(CC(=O)c3c(Cl)cncc3Cl)CC(C)(C)C(F)(F)F)c2C(F)(F)F)CC[C@@H]1C(=O)O (single isomer, unassigned) [Example 879]
IC50: 2.95 nM

C[C@@H]1C[C@H](n2ncc(C(=O)N(CC(=O)c3c(Cl)cncc3Cl)CC(C)(C)C)c2C(F)(F)F)CC[C@H]1C(=O)O [Example 793, (1R,2R,4R)-4-(4-((2-(3,5-dichloro-4-pyridinyl)-2-oxoethyl)(2,2-dimethylpropyl)carbamoyl)-5-(trifluoromethyl)-1H-pyrazol-1-yl)-2-methylcyclohexanecarboxylic acid]
IC50: 25.1 nM

Cc1cc(Cl)c(C(=O)CN(C[C@@]2(C)CCCO2)C(=O)c2cnn([C@H]3CC[C@](C)(C(=O)O)CC3)c2C(F)(F)F)c(Cl)c1 [Example 725, trans-4-(4-((2-(2,6-dichloro-4-methylphenyl)-2-oxoethyl)(((2S)-2-methyltetrahydro-2-furanyl)methyl)carbamoyl)-5-(trifluoromethyl)-1H-pyrazol-1-yl)-1-methylcyclohexanecarboxylic acid]
IC50: 4.47 nM

C[C@@H]1C[C@@H](n2ncc(C(=O)N(CC(=O)c3c(Cl)cncc3Cl)CC(C)(C)F)c2C(F)(F)F)CC[C@@H]1C(=O)O [Example 829, (1S,2R,4S)-4-(4-((2-(3,5-dichloro-4-pyridinyl)-2-oxoethyl)(2-fluoro-2-methylpropyl)carbamoyl)-5-(trifluoromethyl)-1H-pyrazol-1-yl)-2-methylcyclohexanecarboxylic acid]
IC50: 9.55 nM

C[C@@H]1C[C@@H](n2ncc(C(=O)N(CC(=O)c3c(Cl)cccc3Cl)[C@H]3C[C@@H]4[C@H](C3)C4(C)C)c2C(F)(F)F)CC[C@@H]1C(=O)O [Example 787, (1S,2R,4S)-4-(4-((2-(2,6-dichlorophenyl)-2-oxoethyl)((1R,3r,5S)-6,6-dimethylbicyclo[3.1.0]hex-3-yl)carbamoyl)-5-(trifluoromethyl)-1H-pyrazol-1-yl)-2-methylcyclohexanecarboxylic acid]
IC50: 2.09 nM

CC(C)(C)CN(CC(=O)c1c(Cl)cccc1Cl)C(=O)c1cnn([C@H]2CC[C@@H](C(=O)O)CC2)c1C(F)(F)F [Example 670, cis-4-(4-((2-(2,6-dichlorophenyl)-2-oxoethyl)(2,2-dimethylpropyl)carbamoyl)-5-(trifluoromethyl)-1H-pyrazol-1-yl)cyclohexanecarboxylic acid]
IC50: 21.9 nM

CC1(C)CC[C@@H]1N(CC(=O)c1c(Cl)cccc1Cl)C(=O)c1cnn([C@H]2CC[C@@H](C(=O)O)CC2)c1C(F)(F)F [Example 637, cis-4-(4-((2-(2,6-dichlorophenyl)-2-oxoethyl)((1S)-2,2-dimethylcyclobutyl)carbamoyl)-5-(trifluoromethyl)-1H-pyrazol-1-yl)cyclohexanecarboxylic acid]
IC50: 724 nM

C[C@]1(C(=O)O)CC[C@H](n2ncc(C(=O)N(CC(=O)c3c(Cl)cccc3Cl)CC3CC4(CC4)C3)c2C(F)(F)F)CC1 [Example 566, trans-4-(4-((2-(2,6-dichlorophenyl)-2-oxoethyl)(spiro[2.3]hex-5-ylmethyl)carbamoyl)-5-(trifluoromethyl)-1H-pyrazol-1-yl)-1-methylcyclohexanecarboxylic acid]
IC50: 3.09 nM

C[C@]1(C(=O)O)CC[C@H](n2ncc(C(=O)N(CC(=O)c3c(Cl)cc(F)cc3Cl)CC3CCCC3)c2C(F)(F)F)CC1 [Example 698, trans-4-(4-((cyclopentylmethyl)(2-(2,6-dichloro-4-fluorophenyl)-2-oxoethyl)carbamoyl)-5-(trifluoromethyl)-1H-pyrazol-1-yl)-1-methylcyclohexanecarboxylic acid]
IC50: 2.09 nM

Cc1cc(Cl)c(C(=O)CN(C(=O)c2cnn([C@H]3CC[C@](C)(C(=O)O)CC3)c2C(F)(F)F)[C@H]2C[C@@H]3CC[C@H]2C3)c(Cl)c1 [Example 678, trans-4-(4-((1S,2S,4R)-bicyclo[2.2.1]hept-2-yl(2-(2,6-dichloro-4-methylphenyl)-2-oxoethyl)carbamoyl)-5-(trifluoromethyl)-1H-pyrazol-1-yl)-1-methylcyclohexanecarboxylic acid]
IC50: 1.07 nM

C[C@@]1(CN(CC(=O)c2c(Cl)cccc2Cl)C(=O)c2cnn([C@H]3CC[C@](C)(C(=O)O)CC3)c2C(F)(F)F)CCCO1 [Example 727, trans-4-(4-((2-(2,6-dichlorophenyl)-2-oxoethyl)(((2S)-2-methyltetrahydro-2-furanyl)methyl)carbamoyl)-5-(trifluoromethyl)-1H-pyrazol-1-yl)-1-methylcyclohexanecarboxylic acid]
IC50: 11.7 nM

C[C@]1(C(=O)O)CC[C@H](n2ncc(C(=O)N(CC(=O)c3c(Cl)cccc3Cl)C3CC4(CCC4)C3)c2C(F)(F)F)CC1 [Example 632, trans-4-(4-((2-(2,6-dichlorophenyl)-2-oxoethyl)(spiro[3.3]hept-2-yl)carbamoyl)-5-(trifluoromethyl)-1H-pyrazol-1-yl)-1-methylcyclohexanecarboxylic acid]
IC50: 3.98 nM

C[C@@H]1C[C@](C)(C(=O)O)CC[C@H]1n1ncc(C(=O)N(CC(=O)c2c(Cl)cncc2Cl)CC(C)(C)C)c1C(F)(F)F (stereo in doubt) [Example 855, (1R,3R,4R)-4-(4-((2-(3,5-dichloro-4-pyridinyl)-2-oxoethyl)(2,2-dimethylpropyl)carbamoyl)-5-(trifluoromethyl)-1H-pyrazol-1-yl)-1,3-dimethylcyclohexanecarboxylic acid]
IC50: 5.75 nM

C=CC[C@@H]1CCCC[C@@H]1n1ncc(C(=O)N(CC(=O)c2c(Cl)cncc2Cl)CC(C)(C)C)c1C(F)(F)F (stereo in doubt) [Example 586, N-(2-(3,5-dichloro-4-pyridinyl)-2-oxoethyl)-N-(2,2-dimethylpropyl)-1-((1S,2S)-2-(2-propen-1-yl)cyclohexyl)-5-(trifluoromethyl)-1H-pyrazole-4-carboxamide]
IC50: 331 nM

C[C@@H]1C[C@H](n2ncc(C(=O)N(CC(=O)c3c(Cl)cncc3Cl)C[C@]34CC[C@H](CC3)O4)c2C(F)(F)F)CC[C@H]1C(=O)O [Example 867, (1S,2S,4S)-4-(4-((2-(3,5-dichloro-4-pyridinyl)-2-oxoethyl)((1s,4s)-7-oxabicyclo[2.2.1]hept-1-ylmethyl)carbamoyl)-5-(trifluoromethyl)-1H-pyrazol-1-yl)-2-methylcyclohexanecarboxylic acid]
IC50: 24.5 nM

CCC(C)(C)CN(CC(=O)c1c(F)cccc1Cl)C(=O)c1cnn([C@H]2CC[C@](C)(C(=O)O)CC2)c1C(F)(F)F [Example 657, trans-4-(4-((2-(2-chloro-6-fluorophenyl)-2-oxoethyl)(2,2-dimethylbutyl)carbamoyl)-5-(trifluoromethyl)-1H-pyrazol-1-yl)-1-methylcyclohexanecarboxylic acid]
IC50: 2.24 nM
